# Test results reported in patent publication US6881719B2, “β-turn peptidomimetic cyclic compounds” (McGill University, priority 2000, dated 2005).
# pKd: −log10 of the molar value.
# Tests used:
# [1] = biological target: T1, p75 NGF receptor subunit (Rattus norvegicus, UniProt P07174); experiment: FACScan competition of anti-p75 mAb MC192 binding on 4-3.6 cells; conditions: mAb 1 nM; competitor 40 μM
# T1 construct: B104 rat neuroblastomas express p75 receptors; endogenous in cells
# Text: (§1) The 4-3.6 cells are B104 cells stably transfected with human trkA cDNA, and express equal levels of p75 and TrkA (TrkA+ p75+). For screening agents that activate or antagonize TrkC receptors, NIH3T3 fibroblasts were stably transfected with human TrkC cDNA. These cells respond to the ligand NT-3. For screening agents that activate or antagonize TrkA receptors, NIH3T3 fibroblasts were stably transfected with human TrkA cDNA. These cells respond to the ligand NGF.
# FACScan binding assays: 4-3.6 cells (2×10^5) in FACScan binding buffer (PBS, 0.5% BSA, and 0.1% NaN3) were immunostained as described (Saragovi et al., 1998). Saturating anti-TrkA mAb 5C3, or anti-p75 mAb MC192, or control non-binding IgGs were added to cells for 1 hour at 4° C., in the presence or absence of D3 as competitor. Excess primary antibody was washed off, and cells were immunostained with fluorescinated goat-anti-mouse IgG secondary antibody. Cells were acquired on a FACScan and mean channel fluorescence of bell-shaped histograms were analyzed using the LYSIS II program.
# [2] = system: septal neuronal cultures; experiment: ChAT activity in septal neuronal cultures; type: cell-based, rat; conditions: day 8
# Method: Cell cultures were established from the septal area of 17-day-old rat embryos. In brief, tissue was incubated in PBS containing trypsin and DNase. Tissue pieces then were mechanically dissociated. After centrifugation, the pellet was suspended in Leibovitz's L-15 medium. Cells were plated onto 96-multiwell NUNC dishes (10^5 cells/well) coated with poly-D-lysine (5 μg/ml). Pure cultures of septal neurons were treated 1 day after plating. Drugs, prepared in medium, were added directly to the cells without changing the initial medium. The incubation continued for 8 days, at which time ChAT activity was evaluated.
# At day 8 of culture, the medium was aspirated, and ice-cold lysis buffer (10 mM sodium phosphate, pH 7.4/0.1% TritonX-100—Trade-mark) was added. ChAT activity assays were performed directly in the wells using Fonnum's method (Fonnum, 1975).
# [3] = biological target: T2, TrkA-ECD (Homo sapiens, UniProt P04629); experiment: ELISA competition of mAb 5C3 binding to immobilized TrkA-ECD; conditions: for % Binding of mAb 5C3 to TrkA-ECD: mAb 5C3 2 nM
# T2 construct: pure soluble TrkA extracellular domain (TrkA-ECD) produced in baculovirus; made in house
# Method: Direct binding studies: were done as described (Saragovi et al., 1998) using 6 ng/well of recombinant baculovirus TrkA-extracellular domain protein (TrkA-ECD) or control bovine serum albumin (BSA, Fraction V, Boehringer Mannheim) immobilized onto 96-well microtest plates. Wells were blocked with binding buffer (BB: PBS with 1% BSA) for 1 hour. Then, 50 ng/well of biotinylated D3 were added as primary reagent in BB for 40 min in the absence or presence of excess non-biotinylated D3 as competitor. Wells were washed 5 times with BB, and horseradish peroxidase (HRP)-coupled avidin (Sigma) was added as secondary reagent for 30 min. Plates were washed in BB, and peroxidase activity was determined colorimetrically using 2,2-azinobis (3-ethylbenzthiazoline sulfonic acid) (ABTS, Sigma). The optical density (OD) was measured at 414 nm in a Microplate reader (Bio-Rad). Assays were repeated at least three times, n=4.
# Binding Competition: studies were as described for direct binding assays to TrkA-ECD, except that as primary reagent 50 ng anti-TrkA mAb 5C3/well were added in BB, in the presence or absence of D3 or controls as competitors as described (Saragovi et al., 1998). Wells were washed 5 times with BB, and HRP-coupled goat anti-mouse was added as secondary reagent for 30 min. Plates were washed in BB, and peroxidase activity were determined. Assays were repeated at least three times, n=4.
# [4] = biological target: T2, TrkA-ECD; experiment: ELISA and RIA binding assays of NGF•TrkA-ECD
# [5] = biological target: TrkA (Homo sapiens, UniProt P04629); experiment: Inhibition of agonistic activity of mAb 5C3; type: cell-based
# [6] = system: embryonic rat DRG primary neuronal cultures; experiment: Cell survival (MTT), primary DRG cultures; type: cell-based; conditions: 8 days;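 on % Protection: 100% equals survival with optimal NGF at 1 nM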
# Method: Fetal rat DRG primary cultures were established from Sprague Dawley day 17 rat embryos. All ganglia were dissected and dissociated first enzymatically with trypsin and then mechanically. Dissociated cells were cultured (10^5 cells/well) in 96 well plates pre-coated with collagen, and grown for a total of 8 days in Neuro Basal Medium containing N2 supplement (GIBCO, Toronto), antibiotics, and L-glutamine. These DRG cultures are ˜85% TrkA-expressing and are heavily dependent on TrkA signals for survival.
# Primary DRG cultures: After a total of 8 days of culture with the indicated test or control ligands, cell survival were studied using the 3(4,5-Dimethylthiazolyl-2)-2,5-diphenyl tetrazolium bromide colorimetric (MTT) assay, and by microscopic observation.
# (§2) Cell lines: 5,000 cells/well in protein-free media (PFHM-II, GIBCO, Toronto) containing 0.2% bovine serum albumin (BSA) (Crystalline fraction V, Sigma, St. Louis, Mo.) were seeded in 96 well plates (Falcon, Mississauga, Ontario). The cultures were untreated, or treated with the indicated test or control ligands. Cell viability was quantitated using the MTT assay after 56-72 hours of culture. […] The OD of untreated cells were subtracted. The higher optical density of untreated primary cultures is likely due to cellular heterogeneity and to endogenous production of limiting amounts of growth factors.
# [7] = biological target: T3, NIH3T3 fibroblasts expressing TrkC (Homo sapiens, UniProt Q16288); experiment: Cell survival (MTT), NIH-TrkC; type: cell-based; conditions: for NIH-TrkC % Protection: 72 hours
# T3 construct: expressed in transfected cells; host or cells: NIH3T3 fibroblasts
# Text: as §1, §2
# [8] = physchem; conditions: water
# T2 sequence (P04629 33-423 limits assumed): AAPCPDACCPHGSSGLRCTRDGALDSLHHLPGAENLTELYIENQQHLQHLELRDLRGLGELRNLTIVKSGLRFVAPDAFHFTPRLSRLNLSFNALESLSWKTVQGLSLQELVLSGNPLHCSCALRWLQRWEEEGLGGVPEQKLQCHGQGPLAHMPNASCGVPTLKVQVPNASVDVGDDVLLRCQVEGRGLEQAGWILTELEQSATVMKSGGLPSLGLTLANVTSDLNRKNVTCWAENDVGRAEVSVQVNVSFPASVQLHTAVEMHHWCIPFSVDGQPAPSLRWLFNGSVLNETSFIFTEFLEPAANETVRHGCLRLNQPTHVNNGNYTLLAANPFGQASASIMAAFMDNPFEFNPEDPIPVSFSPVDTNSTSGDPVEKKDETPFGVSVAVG
# T3 sequence (Q16288 32-839): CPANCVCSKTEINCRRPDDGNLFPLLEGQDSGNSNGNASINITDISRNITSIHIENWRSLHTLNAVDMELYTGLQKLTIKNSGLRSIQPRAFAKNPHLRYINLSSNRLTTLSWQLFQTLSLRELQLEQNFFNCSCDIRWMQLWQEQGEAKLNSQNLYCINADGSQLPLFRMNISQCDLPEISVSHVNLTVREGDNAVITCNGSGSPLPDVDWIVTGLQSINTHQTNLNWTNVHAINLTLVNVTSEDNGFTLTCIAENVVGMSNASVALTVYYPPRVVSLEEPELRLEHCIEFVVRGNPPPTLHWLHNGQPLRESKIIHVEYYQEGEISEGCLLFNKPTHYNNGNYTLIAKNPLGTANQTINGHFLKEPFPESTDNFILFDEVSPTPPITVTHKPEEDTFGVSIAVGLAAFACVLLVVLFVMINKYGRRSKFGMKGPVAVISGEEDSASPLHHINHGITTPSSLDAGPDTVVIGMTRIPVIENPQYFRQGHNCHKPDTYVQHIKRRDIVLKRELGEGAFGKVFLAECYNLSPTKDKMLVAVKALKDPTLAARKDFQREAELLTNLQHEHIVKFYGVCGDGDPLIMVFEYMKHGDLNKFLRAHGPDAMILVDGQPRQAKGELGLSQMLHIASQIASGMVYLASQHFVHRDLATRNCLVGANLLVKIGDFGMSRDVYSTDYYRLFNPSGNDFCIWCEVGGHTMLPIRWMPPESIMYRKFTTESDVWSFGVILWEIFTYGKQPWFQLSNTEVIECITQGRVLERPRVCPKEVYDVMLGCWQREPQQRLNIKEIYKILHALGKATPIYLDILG
# TrkA, sequence (P04629 33-796): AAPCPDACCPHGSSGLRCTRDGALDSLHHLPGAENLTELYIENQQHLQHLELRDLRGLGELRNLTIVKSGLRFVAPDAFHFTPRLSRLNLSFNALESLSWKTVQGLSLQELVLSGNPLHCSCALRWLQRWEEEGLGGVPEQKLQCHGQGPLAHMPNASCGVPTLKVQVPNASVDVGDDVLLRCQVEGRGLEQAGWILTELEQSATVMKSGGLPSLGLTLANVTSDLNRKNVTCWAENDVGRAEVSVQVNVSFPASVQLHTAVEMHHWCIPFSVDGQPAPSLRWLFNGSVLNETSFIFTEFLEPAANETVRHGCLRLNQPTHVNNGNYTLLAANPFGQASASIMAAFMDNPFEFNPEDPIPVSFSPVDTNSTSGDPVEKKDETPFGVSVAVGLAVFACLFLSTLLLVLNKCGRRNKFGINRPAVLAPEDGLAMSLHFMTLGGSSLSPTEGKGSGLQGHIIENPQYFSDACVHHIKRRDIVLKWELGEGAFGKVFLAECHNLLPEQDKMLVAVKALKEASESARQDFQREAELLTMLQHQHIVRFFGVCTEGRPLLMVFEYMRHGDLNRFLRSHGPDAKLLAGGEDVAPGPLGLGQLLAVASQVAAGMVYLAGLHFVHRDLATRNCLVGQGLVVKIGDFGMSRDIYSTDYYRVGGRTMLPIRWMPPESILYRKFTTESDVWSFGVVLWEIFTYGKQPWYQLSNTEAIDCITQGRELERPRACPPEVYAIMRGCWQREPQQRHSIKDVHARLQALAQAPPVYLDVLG
# T1 sequence (P07174 30-425): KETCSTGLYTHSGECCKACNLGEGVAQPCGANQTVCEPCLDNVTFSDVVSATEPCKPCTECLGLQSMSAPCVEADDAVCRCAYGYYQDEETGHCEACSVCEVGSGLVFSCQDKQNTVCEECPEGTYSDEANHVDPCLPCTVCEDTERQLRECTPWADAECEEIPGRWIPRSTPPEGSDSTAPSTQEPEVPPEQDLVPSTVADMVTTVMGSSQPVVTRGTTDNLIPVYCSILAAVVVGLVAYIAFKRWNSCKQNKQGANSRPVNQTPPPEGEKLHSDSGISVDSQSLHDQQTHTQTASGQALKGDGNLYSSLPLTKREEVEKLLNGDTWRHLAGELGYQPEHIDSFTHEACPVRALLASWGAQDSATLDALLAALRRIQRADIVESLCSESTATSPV
structure (smiles),measurement,setting,value
"NCCCC[C@@H]1NC(=O)[C@H](CCC(=O)O)NC(=O)c2cc([N+](=O)[O-])ccc2OCCC(C(=O)NCC(=O)O)NC1=O (stereo partly shown) [D3, EKHse-G-OH]",% Maximal binding of mAb MC192,[1],101 ± 2%
same,ChAT Activity,[2]; compound 0.2 μM + 10 pM NGF,0.60 ± 0.04 pmol Ach/min/well
same,Fold Increase (ChAT activity),[2]; compound 0.2 μM + 10 pM NGF,2.00
same,ChAT Activity,[2]; compound 0.2 μM alone,0.37 ± 0.05 pmol Ach/min/well
same,Fold Increase (ChAT activity),[2]; compound 0.2 μM alone,1.23
same,ChAT Activity,[2]; compound 2 μM + 10 pM NGF,0.76 ± 0.03 pmol Ach/min/well
same,Fold Increase (ChAT activity),[2]; compound 2 μM + 10 pM NGF,2.53
same,ChAT Activity,[2]; compound 2 μM alone,0.44 ± 0.02 pmol Ach/min/well
same,Fold Increase (ChAT activity),[2]; compound 2 μM alone,1.47
same,ChAT Activity,[2]; compound 20 μM + 10 pM NGF,0.79 ± 0.04 pmol Ach/min/well
same,Fold Increase (ChAT activity),[2]; compound 20 μM + 10 pM NGF,2.63
same,ChAT Activity,[2]; compound 20 μM alone,0.48 ± 0.06 pmol Ach/min/well
same,Fold Increase (ChAT activity),[2]; compound 20 μM alone,1.56
same,pKd,"[3]; calculated from the experimental IC50, read-out: Kd for D3•TrkA-ECD interactions",~5.70
same,% Binding of mAb 5C3 to TrkA-ECD,[3]; competitor 0.05 μM,100 ± 14%
same,% Binding of mAb 5C3 to TrkA-ECD,[3]; competitor 0.2 μM,89 ± 8%
same,% Binding of mAb 5C3 to TrkA-ECD,[3]; competitor 1 μM,64 ± 10%
same,% Binding of mAb 5C3 to TrkA-ECD,[3]; competitor 5 μM,43 ± 12%
same,% Binding of mAb 5C3 to TrkA-ECD,[3]; competitor 20 μM,38 ± 7%
same,% Binding of mAb 5C3 to TrkA-ECD,[3]; competitor 40 μM,31 ± 4%
same,blocking of NGF•TrkA-ECD interactions,[4],did not substantially block
same,inhibition of optimal agonistic activity of mAb 5C3,[5],inhibited by D3 in a dose-dependent manner
same,% Protection,[6]; compound 10 μM + NGF 20 pM,48 ± 3%
same,Optical Density,[6]; compound 10 μM + NGF 20 pM,471 ± 28
same,% Protection,[6]; compound 10 μM + NGF 500 pM,84 ± 3%
same,Optical Density,[6]; compound 10 μM + NGF 500 pM,603 ± 26
same,% Protection,[6]; compound 10 μM + NGF 1 nM,120 ± 7%
same,Optical Density,[6]; compound 10 μM + NGF 1 nM,977 ± 38
same,% Protection,[6]; compound 10 μM alone,38 ± 2%
same,Optical Density,[6]; compound 10 μM alone,405 ± 22
same,enhancement of NT-3 protection,[7]; NIH3T3 cells stably transfected with trkC cDNA,did not enhance NT-3 protection
same,NIH-TrkC % Protection,[7]; agent 10 μM + 10 pM NGF,6 ± 2%
same,NIH-TrkC % Protection,[7]; agent 10 μM alone,3 ± 3%
same,solubility,[8],≥ 5000 µg/mL
